ChEMBL document CHEMBL5338791, “Discovery of Novel 1,3-Diphenylpyrazine Derivatives as Potent S-Phase Kinase-Associated Protein 2 (Skp2) Inhibitors for the Treatment of Cancer” (J Med Chem, 2023)
Active and inactive are the calls of the source. No cut-off for these calls is given here.

What was measured:
PC-3 [1] = assay: Induction of cell cycle arrest in human PC-3 cells assessed as accumulation of cells at S phase at 10 uM incubated for 48 hrs by flow cytometry (reference value: 22.44 %); type: functional
MGC-803 [2] = assay: Induction of apoptosis in human MGC-803 cells assessed as late apoptotic cells at 10 uM incubated for 48 hrs by annexin V-FITC/PI staining based flow cytometry (reference value: 0.95 %); type: functional
PC-3 [3] = assay: Induction of cell cycle arrest in human PC-3 cells assessed as accumulation of cells at S phase at 10 uM incubated for 48 hrs by flow cytometry (reference value: 19.7 %); type: functional
PC-3 [4] = assay: Induction of apoptosis in human PC-3 cells assessed as viable cells at 2.5 uM incubated for 48 hrs by annexin V-FITC/PI staining based flow cytometry (reference value: 98.6 %); type: functional; details: read-out: Activity
PC-3 [5] = assay: Inhibition of cell migration in human PC-3 cells incubated for 48 hrs by wound healing assay; type: functional, cell-based; details: dose <= 2.0 µM
MGC-803 [6] = assay: Upregulation of p27 level in human MGC-803 cells at 10 uM incubated upto 48 hrs by Western blot analysis; type: functional, cell-based
MGC-803 [7] = assay: Induction of cell cycle arrest in human MGC-803 cells assessed as accumulation of cells at S phase at 5 uM incubated for 48 hrs by flow cytometry (reference value: 22.72 %); type: functional
MGC-803 [8] = assay: Induction of cell cycle arrest in human MGC-803 cells assessed as accumulation of cells at S phase at 10 uM incubated for 36 hrs by flow cytometry (reference value: 20.41 %); type: functional
MGC-803 [9] = assay: Induction of cell cycle arrest in human MGC-803 cells assessed as accumulation of cells at S phase at 10 uM incubated for 24 hrs by flow cytometry (reference value: 20.41 %); type: functional
MGC-803 [10] = assay: Antitumor activity against human MGC-803 cells xenografted in NOD-SCID mouse model assessed as downregulation of Skp2 expression at 10 to 50 mg/kg, IG administered once every 2 days for 21 days by Western blot analysis; type: functional, organism-based; details: dose 10-50 mg/kg, time 21.0 day
[11] = Toxicity in mouse assessed as decrease in platelet level at 10 to 50 mg/kg; type: organism-based; details: dose 10-50 mg/kg
PC-3 [12] = assay: Induction of cell cycle arrest in human PC-3 cells assessed as accumulation of cells at G2 phase at 10 uM incubated for 12 hrs by flow cytometry (reference value: 19.34 %); type: functional
MGC-803 [13] = assay: Induction of cell cycle arrest in human MGC-803 cells assessed as accumulation of cells at G1 phase at 5 uM incubated for 48 hrs by flow cytometry (reference value: 54.46 %); type: functional
MGC-803 [14] = assay: Downregulation of Skp2 level in human MGC-803 cells incubated for 48 hrs by Western blot analysis; type: functional, cell-based; details: dose <= 10.0 µM
[15] = Cmax in plasma of NOD-SCID mouse model xenografted with human PC-3 cells at 25 mg/kg, IG measured upto 48 hrs by LC-MS/MS analysis; type: ADME, organism-based; design: time < 48 hrs, dose 25 mg/kg, route ig; details: po
[16] = Toxicity in NOD-SCID mouse model xenografted with human MGC-803 cells assessed as change in spleen histology at 10 to 50 mg/kg, IG administered once every 2 days for 21 days by H and E staining based analysis; type: organism-based; details: in vivo, po, 504 h, dose 10-50 mg/kg, time 21 day
MGC-803 [17] = assay: Induction of apoptosis in human MGC-803 cells assessed as nuclear condensation incubated for 48 hrs; type: functional, cell-based; details: dose <= 10.0 µM
PC-3 [18] = assay: Induction of apoptosis in human PC-3 cells assessed as viable cells at 5 uM incubated for 48 hrs by annexin V-FITC/PI staining based flow cytometry (reference value: 98.6 %); type: functional; details: read-out: Activity
PC-3 [19] = assay: Induction of apoptosis in human PC-3 cells assessed as necrotic cells at 2.5 uM incubated for 48 hrs by annexin V-FITC/PI staining based flow cytometry (reference value: 0.14 %); type: functional
MGC-803 [20] = assay: Induction of cell cycle arrest in human MGC-803 cells assessed as accumulation of cells at G1 phase at 10 uM incubated for 48 hrs by flow cytometry (reference value: 54.46 %); type: functional
MGC-803 [21] = assay: Induction of apoptosis in human MGC-803 cells assessed as early apoptotic cells at 5 uM incubated for 48 hrs by annexin V-FITC/PI staining based flow cytometry (reference value: 0.21 %); type: functional
MGC-803 [22] = assay: Induction of cell cycle arrest in human MGC-803 cells assessed as accumulation of cells at S phase at 2.5 uM incubated for 48 hrs by flow cytometry (reference value: 22.72 %); type: functional
[23] = Half life in plasma of NOD-SCID mouse model xenografted with human PC-3 cells at 25 mg/kg, IG measured upto 48 hrs by LC-MS/MS analysis; type: ADME, organism-based; details: po
PC-3 [24] = assay: Antitumor activity against human PC-3 cells xenografted in NOD-SCID mouse model assessed as downregulation of Skp2 expression at 10 to 50 mg/kg, IG administered once every 2 days for 21 days by Western blot analysis; type: functional, organism-based; details: dose 10-50 mg/kg, time 21.0 day
PC-3 [25] = assay: Antitumor activity against human PC-3 cells xenografted in NOD-SCID mouse model assessed as increase in apoptosis in tumor tissue at 10 to 50 mg/kg, IG administered once every 2 days for 21 days by TUNEL staining based analysis; type: functional, organism-based; details: dose 10-50 mg/kg, time 21.0 day
PC-3 [26] = assay: Upregulation of p21 level in human PC-3 cells at 10 uM incubated upto 48 hrs by Western blot analysis; type: functional, cell-based
[27] = Toxicity in mouse assessed as decrease in total protein level at 10 to 50 mg/kg; type: organism-based; details: in vivo, dose 10-50 mg/kg
PC-3 [28] = assay: Antitumor activity against human PC-3 cells xenografted in NOD-SCID mouse model assessed as tumor growth inhibition at 50 mg/kg, IG administered once every 2 days for 21 days relative to control; type: functional; details: PC-3, po, 504 h, time 21 day, read-out: TGI
PC-3 [29] = assay: Upregulation of p21 level in human PC-3 cells upto 10 uM by Western blot analysis; type: functional, cell-based; details: time 48.0 hrs, TDE = time-dependent effect
MGC-803 [30] = assay: Upregulation of p21 level in human MGC-803 cells at 10 uM incubated upto 48 hrs by Western blot analysis; type: functional, cell-based
PC-3 [31] = assay: Antitumor activity against human PC-3 cells xenografted in NOD-SCID mouse model assessed as p27 accumulation at 10 to 50 mg/kg, IG administered once every 2 days for 21 days by Western blot analysis; type: functional, organism-based; details: dose 10-50 mg/kg, time 21.0 day
[32] = MRTlast in tumor of NOD-SCID mouse model xenografted with human PC-3 cells at 25 mg/kg, IG measured upto 48 hrs by LC-MS/MS analysis; type: ADME, organism-based, Neoplasm; details: po
[33] = Toxicity in NOD-SCID mouse model xenografted with human MGC-803 cells assessed as change in kidney histology at 10 to 50 mg/kg, IG administered once every 2 days for 21 days by H and E staining based analysis; type: organism-based; details: in vivo, po, 504 h, dose 10-50 mg/kg, time 21 day
[34] = Toxicity in NOD-SCID mouse model xenografted with human MGC-803 cells assessed as change in lung histology at 10 to 50 mg/kg, IG administered once every 2 days for 21 days by H and E staining based analysis; type: organism-based; details: in vivo, po, 504 h, dose 10-50 mg/kg, time 21 day
PC-3 [35] = assay: Induction of cell cycle arrest in human PC-3 cells assessed as accumulation of cells at S phase at 10 uM incubated for 36 hrs by flow cytometry (reference value: 19.7 %); type: functional

O=C(CCl)NC1CCN(c2cnc(-c3ccccc3)c(-c3ccccc3)n2)CC1
Activity (PC-3 [1]): 43.58%
Activity (MGC-803 [2]): 24.9%
Activity (PC-3 [3]): 44.19%
viability at 2.5 µM (PC-3 [4]): 92.2%
inhibition (PC-3 [5]): Dose-Dependent Effect
Activity (MGC-803 [6]): Active
Activity (MGC-803 [7]): 35.78%
Activity (MGC-803 [8]): 42.29%
Activity (MGC-803 [9]): 35.4%
Activity (MGC-803 [10]): Active
Activity [11]: Toxic
Activity (PC-3 [12]): 21.89%
Activity (MGC-803 [13]): 45.12%
Activity (MGC-803 [14]): Dose-Dependent Effect
Cmax [15]: 176 ng/mL
Activity [16]: Non-Toxic
Activity (MGC-803 [17]): Dose-Dependent Effect
viability at 5 µM (PC-3 [18]): 82.5%
Activity (PC-3 [19]): 1.86%
Activity (MGC-803 [20]): 39.31%
Activity (MGC-803 [21]): 3.65%
Activity (MGC-803 [22]): 26.89%
half-life [23]: 14.1 h
Activity (PC-3 [24]): Active
Activity (PC-3 [25]): Active
Activity (PC-3 [26]): Active
Activity [27]: Toxic
inhibition in vivo at 50 mg/kg (PC-3 [28]): 90.4%
Activity (PC-3 [29]): Tde
Activity (MGC-803 [30]): Active
Activity (PC-3 [31]): Active
MRT last at 48 h [32]: 9.9 h
Activity [33]: Non-Toxic
Activity [34]: Non-Toxic
Activity (PC-3 [35]): 45.23%
